Key:
[1] = tested on: skin; assay: Applicant's studies of chlorophyllin combined with aminolevulinic acid
[2] = Water-solubility; format: physicochemical; settings: compared with chlorophyll

water-solubility [2]: good water-solubility
Substance: chlorophyllin
effectiveness of aminolevulinic acid [1]: promoting the effectiveness
protective role against side effects of aminolevulinic acid (erythema) [1]: preventing in particular the appearance of erythema

— US20100255045A1, “COMPOSITION FOR PHOTODYNAMIC SKIN TREATMENT” (priority 2007, published 2010)
